PMC5589637, “New perspectives of cobalt tris(bipyridine) system: anti-cancer effect and its collateral sensitivity towards multidrug-resistant (MDR) cancers” (Oncotarget, 2017)

Legend:
[1] = system: OV2008 (cisplatin-sensitive) cells; assay: MTT cytotoxicity, OV2008 (cisplatin-sensitive); assay type: cell-based; details: 72 h, read-out: IC50 value, cisplatin-sensitive cancer, OV2008
Description: (§1) All cells were obtained from the American Type Culture Collection (Rockville, MD, USA) unless otherwise specified. Immortalized wild-type and Atg7-deficient mouse embryonic fibroblasts (MEFs) were kindly provided by Professor Masaaki Komatsu (Juntendo University, School of Medicine, Japan). Taxol-resistant types of MCF-7, HCT-8, A549 cancers cells and cisplatin-resistant SGC7901 cancer cells were purchased from KeyGEN BioTECH, China. Cisplatin-sensitive or –resistant A2780, OV2008 and C13 cancer cells were kindly provided by Prof. Benjamin Tsang (Department of Obstetrics and Gynecology and Department of Cellular and Molecular Medicine, University of Ottawa, Canada). HCT116 p53^+/+ and p53^−/− isogenic human colon cancer cells were kindly provided by Professor Bert Vogelstein (Ludwig Center at Johns Hopkins, Howard Hughes Medical Institute, USA). All media were supplemented with 10% fetal bovine serum and antibiotics penicillin (50 U/ml) and streptomycin (50 μg/ml; Invitrogen, Paisley, Scotland, UK). All cell cultures were incubated at 37°C in a 5% humidified CO2 incubator.
(§2) All tested compounds were dissolved in DMSO at a final concentration of 50 mmol/L and stored at −20°C before use. Cytotoxicity was assessed by using the 3-(4,5-dimethylthiazol-2-yl)-2, 5-diphenyltetrazolium bromide (MTT) (5.0 mg/ml) assay as previously described. Briefly, 4×10^3 cells per well were seeded in 96-well plates before drug treatments. After overnight culture, the cells were then exposed to different concentrations of selected compounds ([…]) for 72 hours. Cells without drug treatment were used as control. Subsequently, MTT (10 μL) solution was added to each well and incubated at 37°C for 4 hours followed by the addition of 100 μL solubilization buffer (10%SDS in 0.01 mol/L HCl) and overnight incubation. A570 nm was then determined in each well on the next day. The percentage of cell viability was calculated using the following formula: Cell viability (%) = Atreated/Acontrol × 100. Data were obtained from three independent experiments.

[2] = system: SGC-7901 cisplatin-sensitive cancer cells; assay: MTT cytotoxicity, cisplatin-sensitive SGC-7901; assay type: cell-based; details: 72 h
Description: as §1, §2

[3] = system: Atg7^+/+ wild-type MEFs; assay: MTT cytotoxicity, Atg7 wild-type MEFs; assay type: cell-based, mouse; details: 72 h
Description: as §1, with “All media were supplemented with 10% fetal bovine serum and antibiotics penicillin (50 U/ml) and streptomycin (50 μg/ml; Invitrogen, Paisley, Scotland, UK). All cell cultures were incubated at 37°C in a 5% humidified CO2 incubator.” left out
All tested compounds were dissolved in DMSO at a final concentration of 50 mmol/L and stored at −20°C before use. Cytotoxicity was assessed by using the 3-(4,5-dimethylthiazol-2-yl)-2, 5-diphenyltetrazolium bromide (MTT) (5.0 mg/ml) assay as previously described. […] A570 nm was then determined in each well on the next day. The percentage of cell viability was calculated using the following formula: Cell viability (%) = Atreated/Acontrol × 100. […]

[4] = system: LLC-1 Lewis lung cancer xenograft; assay: LLC-1 xenograft tumor model; assay type: in vivo; details: LLC-1 bearing C57BL/6 mice, 10 days
Protocol: The mice were maintained under specific pathogen-free condition in a 12-h light-dark cycle. 8-week-old C57BL/6 mice (female body weight: 22 ± 4 g and male body weight 25 ± 4g) were purchased from The Chinese University of Hong Kong. The animals were housed in a 12 hours light/dark cycles and temperature-controlled room and given ad libitum access to food and water. All of the experiments were carried out in accordance to the “Institutional Animal Care and User Committee guidelines” of the Macau University of Science and Technology. C57BL/6 were randomly grouped (10 mice per group) and intraperitoneal injected with 40 mg/kg or 80 mg/kg of cobalt complex 2 or 40 mg/kg or 80 mg/kg of water-soluble form of cobalt complex 2. Xenograft mouse model was constructed as previously described. LLC-1 Lewis lung cancer cells (1 × 10^6 cells) were subcutaneously injected in the right dorsal region of the mice. After tumors grew to about 100 mm^3, the mice were randomly divided into 3 groups: 1) the control group, 2) 40 or 80 mg/kg cobalt complex 2 group, and 3) 40 mg/kg cobalt complex 2W (water soluble form). […] The body weight of each mouse was recorded with the tumor volume determined by Vernier caliper using the formula of L × W^2 × 0.52, where Lis the longest diameter of tumor and W is the shortest diameter of tumor. […]

[5] = system: MCF-7 taxol-resistant cancer cells; assay: MTT cytotoxicity, taxol-resistant MCF-7; assay type: cell-based
Description: as §1, §2

[6] = system: HeLa cancer cells; assay: Endogenous autophagy detection (LC3-II puncta immunofluorescence); assay type: cell-based; details: 24 h
Protocol: The detection of endogenous LC3 was conducted using immunofluorescence staining method as described below. In brief, cobalt complex 2-treated HeLa cancer cells on cover slips were fixed with 4% paraformaldehyde (Sigma) for 20 min at room temperature and then rinsed with PBS. Coverslips were immersed in methanol at room temperature for 2 min. After washing with PBS, the cells were then incubated with anti-LC3 (1:200) in TBST (100 mM Tris HCl, pH 7.5, 150 mM NaCl, 0.05% Tween 20 and 5% BSA) overnight at 4 °C. After washing with PBS, the cells were incubated with anti-mouse secondary antibody (TRITC) (1:200) in TBST containing 5% BSA at 37°C for 1 hour in the dark. The coverslips were then mounted with FluorSave™ mounting media (Calbiochem, San Diego, CA, USA) for fluorescence imaging and localization of LC3 autophagosomes were captured under the API Delta Vision Live-cell Imaging System (Applied Precision Inc.,GE Healthcare Company, Washington, USA). To quantify autophagy, guidelines were followed. The percentage of cells with autophagic induction was calculated by the number of the cells with increased formation of punctate LC3 fluorescence dots (≥ 10 dots/cell) over the total number of immunofluorescence-positive cells in the same field. A minimum of 1000 cells from randomly selected fields were scored.

[7] = system: HepG2 (liver cancer) cells; assay: MTT cytotoxicity assay, HepG2; assay type: cell-based; details: 72 h
Protocol: as §2

[8] = system: normal human LO2 hepatocytes; assay: MTT cytotoxicity assay, LO2; assay type: cell-based; details: 72 h
Protocol: as §2

[9] = system: Hep3B (liver cancer) cells; assay: MTT cytotoxicity assay, Hep 3B; assay type: cell-based; details: 72 h
Protocol: as §2

[10] = target: P-gp (Homo sapiens, UniProt P08183); details: taxol-resistant MCF-7, HCT-8 and A549, 0.5-10 μM, 4 h, dose-dependent
P-gp, sequence (P08183 whole entry): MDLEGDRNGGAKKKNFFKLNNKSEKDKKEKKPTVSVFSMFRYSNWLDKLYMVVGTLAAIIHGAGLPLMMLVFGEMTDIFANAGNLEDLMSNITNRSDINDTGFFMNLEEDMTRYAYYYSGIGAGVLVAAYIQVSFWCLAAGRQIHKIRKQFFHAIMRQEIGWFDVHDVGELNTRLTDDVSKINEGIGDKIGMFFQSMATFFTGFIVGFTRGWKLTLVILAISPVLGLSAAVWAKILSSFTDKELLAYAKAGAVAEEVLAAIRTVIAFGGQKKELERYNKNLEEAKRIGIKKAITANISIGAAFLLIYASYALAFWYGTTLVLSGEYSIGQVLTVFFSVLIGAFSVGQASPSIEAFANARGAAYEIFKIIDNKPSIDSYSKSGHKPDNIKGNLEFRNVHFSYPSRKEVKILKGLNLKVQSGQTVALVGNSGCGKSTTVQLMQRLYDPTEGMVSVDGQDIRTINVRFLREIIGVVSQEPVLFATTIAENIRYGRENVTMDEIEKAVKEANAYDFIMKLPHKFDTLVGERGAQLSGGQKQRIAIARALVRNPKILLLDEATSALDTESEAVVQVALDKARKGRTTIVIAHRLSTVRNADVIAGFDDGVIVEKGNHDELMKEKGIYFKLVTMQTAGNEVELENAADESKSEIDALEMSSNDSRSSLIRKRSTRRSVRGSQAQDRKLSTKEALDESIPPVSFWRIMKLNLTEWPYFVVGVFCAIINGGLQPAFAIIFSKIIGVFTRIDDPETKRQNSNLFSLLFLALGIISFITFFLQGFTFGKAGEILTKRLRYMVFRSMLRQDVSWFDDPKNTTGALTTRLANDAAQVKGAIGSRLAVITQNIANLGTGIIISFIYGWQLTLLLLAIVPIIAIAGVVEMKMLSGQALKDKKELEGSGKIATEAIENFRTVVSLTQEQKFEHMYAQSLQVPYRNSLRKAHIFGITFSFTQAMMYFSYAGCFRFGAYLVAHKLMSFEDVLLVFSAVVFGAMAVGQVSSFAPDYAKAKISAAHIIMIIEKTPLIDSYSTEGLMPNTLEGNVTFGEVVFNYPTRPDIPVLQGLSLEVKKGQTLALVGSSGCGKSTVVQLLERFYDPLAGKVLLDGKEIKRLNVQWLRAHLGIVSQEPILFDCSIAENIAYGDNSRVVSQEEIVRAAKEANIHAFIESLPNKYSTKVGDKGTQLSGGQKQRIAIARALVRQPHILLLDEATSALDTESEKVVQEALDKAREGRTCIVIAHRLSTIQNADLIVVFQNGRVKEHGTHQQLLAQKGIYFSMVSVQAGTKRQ
Protocol: Taxol-resistant cancer cells were seeded in 6 well plate with 2 × 10^5 cells each well and cultured for 24 h at 37°C in an atmosphere containing 5% CO2. […] Subsequently, 5 μg/mL of Rho123 was added to each well and the wells were incubated for another 1 h at 37°C. The accumulation of Rho123 was stopped by washing the cells five times with ice-cold PBS. The cells were then resuspended in 400 μL PBS for flow cytometry analysis. Intracellular fluorescence was measured using a flow cytometer at an excitation wavelength of 488 nm and emission wavelength of 525 nm. All data acquisition and analysis were performed with CellQuest (BD Biosciences, San Jose, CA, USA) with at least three independent experiments. Results were shown as the mean of fluorescence intensity.

[11] = system: HCT116 p53^-/- colon cancer cells; assay: MTT cytotoxicity, HCT116 p53-/-; assay type: cell-based, human
Description: as §1, §2

[12] = system: MCF-7 (breast cancer) cells; assay: MTT cytotoxicity assay, MCF-7; assay type: cell-based; details: MCF-7, MTT, 72 h
Protocol: as §2

[13] = system: HCT-8 taxol-sensitive cancer cells; assay: MTT cytotoxicity, taxol-sensitive HCT-8; assay type: cell-based; details: 72 h
Description: as §1, §2

## Cc1ccnc(-c2cc(C)ccn2)c1.Cc1ccnc(-c2cc(C)ccn2)c1.Cc1ccnc(-c2cc(C)ccn2)c1.F[P-](F)(F)(F)(F)F.F[P-](F)(F)(F)(F)F.F[P-](F)(F)(F)(F)F.[Co+3] [complex 2, [Co^III(4,4’-Me2-bpy)3](PF6)3]
[1]
  IC50: 7.62 µM
[2]
  IC50: 11.1 µM
[3]
  IC50: 4.84 µM
[4]; IP 40 mg/kg/day or 80 mg/kg/day, P < 0.05
  reduction in tumor volume: up to 50%
[4]; IP daily
  body weight: no significant reduction in body weight
[5]; IC50 of taxol-resistant cells over IC50 of taxol-sensitive cells, MCF-7
  Resistant Factor, MCF-7: 0.68
[5]; MCF-7 taxol-resistant, MTT, 72 h
  IC50: 2.71 µM
[6]
  autophagy induction (percentage of cells with endogenous LC3-II puncta formation): induce autophagy in dose-dependent manner
[7]
  IC50: 5.44 µM
[8]
  IC50: 13.2 µM
[9]
  IC50: 3.7 µM
[10]
  effect on P-gp activity (Rho123 accumulation): induced inhibitory effects towards P-gp activity in all the treated cell lines
[11]; HCT116 p53-/-, MTT, 72 h
  IC50: 9.07 µM
[11]; IC50 p53-/- over IC50 p53+/+
  Resistant Factor, HCT116 p53-/- vs p53+/+: 0.59
[12]
  IC50: 6.03 µM
[13]
  IC50: 3.39 µM
